In patent publication US9828576B2, “Cell culture” (National University of Singapore, priority 2012, dated 2017):
“Also recorded” adds a separate entry of the source.

Tested on: bile canaliculi of hepatocyte couplets
Assay: Bile canaliculi (BC) morphology of hepatocyte couplets in F/F microwells after drug treatment (F-actin staining, confocal imaging)
Type: cell-based, rat
Conditions: for degree of folding r of BC / vertical aspect ratio i of BC: F/F microwells with drug, compared with control F/F microwells (FIG. 6D); for BC morphology: hepatocytes in F/F microwells
Experimental: For control, hepatocytes cultured for 48 hours in microwells were fixed in 4% para-formaldehyde (PFA) for 30 minutes. For ±Blebbistatin (Merck, 203390) or Y27632 (Sigma, Y0503) treatments, drugs were added 4 h before fixation, while soluble RGD (Sigma, G5646) was incubated with hepatocytes overnight. After fixation, the cells were rinsed by PBS and permeabilized for 30 min in TBST (0.2% Triton-X in TBS). The permeabilized cells were blocked with 1% BSA in TBST for 4 h and incubated overnight with pan-Cadherin antibody (sigma, C1821) and anti-ZO-1 antibody (life technology, 61-7300) at 4° C. as instructed in manuals. After rinsed with TBST, the cells were incubated in secondary antibodies (Life Technology, A10040 and A-31571) and phalloidin-alexa 488 (Life Technology, A12379) for 1 h in dark at room temperature. After rinsed with TBST again and incubated shortly with DAPI (Sigma, D9564), cells were mounted in mounting medium (DAKO, S3023). 3D stack of confocal microscopy images were acquired with 100×NA1.4 oil lens on a Nikon A1R Confocal Microscope.
The selected slices of image stacks were reconstructed as maximum intensity projection or orthogonal section view. Manual segmentation was applied based on F-actin signal, because F-actin provides a better definition of BC boundaries, compared with ZO-1 (FIG. 11). Several features, such as parameter, thickness, horizontal spin size and area of bile canaliculi, were extracted subsequently.
When cells adhered to the side of microwell only (F/P configuration), hepatocytes positioned side by side (FIG. 5C, 5D). […] To confirm the importance of cell-ECM adhesion in obtaining flat tubular BC, we treated the hepatocytes in F/F microwells on day 1 with soluble RGD peptides (250 μM, overnight) that antagonized the integrin-mediated cell-ECM adhesion while keeping the chemical signalling unperturbed. Indeed, as cells detached from the microwells, their BC rounded up to be morphologically equivalent to those observed in the P/F case (FIG. 6A).
Therefore, we tested whether actomyosin contractility was required for the differential control of BC morphology by the spatial organization of cell-ECM adhesion. […] The resulting morphologies were similar to those obtained in the P/F configuration (FIG. 6B, 6C).
The BC morphologies in different conditions were quantitatively assessed by two dimensionless parameters: the degree of folding and vertical aspect ratio. The degree of folding r=P^2/(4πA) was evaluated by measuring the ratio of the BC projected perimeter P to the projected area A. This morphological index r ranges from 1 (circle) upward (folded tubular structures). The vertical aspect ratio i was calculated as the ratio of the BC maximal height over maximal elongation in the XY plane. Higher vertical aspect ratio represents a thicker BC.

## C[C@@H](N)[C@H]1CC[C@H](C(=O)Nc2ccncc2)CC1 [Y27632]
  degree of folding r of BC: lower
  vertical aspect ratio i of BC: higher
Y27632 10 μM for 4 hours
  BC morphology: rounded up; also recorded: converted tubular BC into spherical ones

## Cc1ccc2c(c1)C(=O)C1(O)CCN(c3ccccc3)C1=N2 (stereo not shown) [blebbistatin]
  degree of folding r of BC: lower
  vertical aspect ratio i of BC: higher
Blebbistatin 100 μM for 4 hours
  BC morphology: rounded up
Blebbistatin 100 μM for 4 hours, listed as blebbistatin +/−
  BC morphology: converted tubular BC into spherical ones
